From patent publication US20250368648A1, “MULTI-CYCLIC IRAK AND FLT3 INHIBITING COMPOUNDS AND USES THEREOF” (CHILDREN'S HOSPITAL MEDICAL CENTER, priority 2022, published 2025)

Columns and labels:
FLT3 = target: T1, FLT3 (Homo sapiens, UniProt P36888); assay: Reaction Biology NanoBRET target engagement assay, FLT3; type: cell-based; settings: HEK-293 cells transfected with Kinase-NanoLuc fusion vector, live cells
T1 sequence (P36888 27-993): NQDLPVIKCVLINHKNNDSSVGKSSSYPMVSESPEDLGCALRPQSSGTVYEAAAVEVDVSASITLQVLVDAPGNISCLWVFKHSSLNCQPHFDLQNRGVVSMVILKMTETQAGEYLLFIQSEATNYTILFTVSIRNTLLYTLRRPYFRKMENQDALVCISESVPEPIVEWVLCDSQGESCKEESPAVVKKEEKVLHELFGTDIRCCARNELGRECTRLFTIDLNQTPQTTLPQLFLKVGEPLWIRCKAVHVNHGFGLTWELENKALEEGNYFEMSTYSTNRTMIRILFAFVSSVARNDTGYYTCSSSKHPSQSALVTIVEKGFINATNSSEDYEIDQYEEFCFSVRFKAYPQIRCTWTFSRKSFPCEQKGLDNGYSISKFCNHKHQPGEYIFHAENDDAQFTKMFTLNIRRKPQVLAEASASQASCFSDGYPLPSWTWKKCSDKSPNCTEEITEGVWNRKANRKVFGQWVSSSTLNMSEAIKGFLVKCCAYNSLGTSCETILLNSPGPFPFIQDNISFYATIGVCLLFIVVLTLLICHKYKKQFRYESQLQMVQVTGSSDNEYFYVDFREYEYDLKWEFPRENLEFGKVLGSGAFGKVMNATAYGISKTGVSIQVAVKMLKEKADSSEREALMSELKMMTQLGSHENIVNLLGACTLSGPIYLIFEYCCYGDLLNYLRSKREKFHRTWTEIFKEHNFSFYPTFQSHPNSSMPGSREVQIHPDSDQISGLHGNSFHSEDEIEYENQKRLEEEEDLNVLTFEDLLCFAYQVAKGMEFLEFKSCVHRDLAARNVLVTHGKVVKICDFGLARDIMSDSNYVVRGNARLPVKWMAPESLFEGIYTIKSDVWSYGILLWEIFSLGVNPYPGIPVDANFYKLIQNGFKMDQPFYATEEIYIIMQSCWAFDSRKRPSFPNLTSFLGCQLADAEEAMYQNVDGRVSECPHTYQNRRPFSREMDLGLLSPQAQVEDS
Source text: The NanoBRET assay measures kinase engagement in real time in the context of the intact cell. Unlike the previously described biochemical kinase assay methodologies in Examples 47 and 48, the NanoBRET assay measures the binding and activity characteristics under equilibrium conditions using full-length kinases in the presence of cellular concentrations of ATP in live, uncompromised cells. […] The assay uses a Kinase-NanoLuc® fusion vector expressing a kinase protein to which a luciferase tag has been added, a cell-permeant fluorescent NanoBRET™ tracer, a NanoLuc® substrate, and an extracellular NanoLuc® inhibitor. Upon expression of the luciferase-tagged kinase, cells will produce a strong BRET signal only in the presence of the NanoBRET™ tracer. The extracellular NanoLuc® inhibitor ensures that the BRET signal observed emanates only from live cells. Because the BRET signal has tight distance constraints, addition of the test compound will decrease the BRET signal if the compound competes with the NanoBRET™ tracer for binding to the kinase domain. Under the appropriate tracer conditions established by the manufacturer, quantitative intracellular affinity and relative potency can then be determined using Mass Action model equations.
HEK-293 cells were purchased from ATCC. FuGENEHD Transfection Reagent, Kinase-NanoLucfusion plasmids, Transfection Carrier DNA, NanoBRETTracers and dilution buffer, NanoBRETNano-Glo Substrate, Extracellular NanoLucInhibitor were obtained from Promega.
Assays were conducted following Promega assay protocol with some modifications. HEK-293 Cells were transiently transfected with Kinase-NanoLucFusion Vector DNA by FuGENEHD Transfection Reagent. Testing compounds were delivered into 384 well assay plate by Echo 550 (LabcyteInc, Sunnyvale, CA). Transfected cells were harvested and mixed with NanoBRETTracer Reagent and dispensed into 384 well plates and incubated at 37° C. in 5% CO2 cell culture incubator for 1 hour. The NanoBRETNano-Glo Substrate plus Extracellular NanoLucInhibitor Solution were added into the wells of the assay plate and incubated for 2-3 minutes at room temperature. The donor emission wavelength (460 nm) and acceptor emission wavelength (600 nm) were measured in the EnVisionplate reader. The BRET Ratios were calculated. BRET Ratio=[(Acceptor sample÷Donor sample)−(Acceptor no-tracer control÷Donor no-tracer control)]. The IC50 values of compounds were calculated with Prism GraphPad program.
• 1). Cultivate HEK-293 cells (70-80% confluence) appropriately prior to assay. Trypsinize and collect HEK-293 cells. • 2). Prepare lipid: DNA complexes as follows: • a. Prepare a 10 μg/ml solution of DNA in Opti-MEM without serum that consists of the following ratios of carrier DNA and DNA encoding NanoLuc® fusion. […] of Transfection Carrier DNA, […] of NanoLuc fusion vector DNA and 1 mL of Opti-MEM without phenol red. Mix thoroughly. • b. Add 30 μl of FuGENE HD Transfection Reagent into each milliliter of DNA mixture to form lipid: DNA complex. • c. Mix by inversion 10 times. • d. Incubate at ambient temperature for 20 minutes to allow complexes to form. • 3). In a sterile, conical tube, mix 1 part of lipid:DNA complex with 20 parts of HEK-293 cells in suspension. Mix gently by inversion 5 times. • 4). Dispense cells+lipid: DNA complex into a sterile tissue culture dish and incubate for 22-24 hours.
Each test compound is delivered from the compound source plate to the wells of 384-well white NBS plate by Echo 550.
3. Preparation of Cells with NanoBRET™ Tracer Reagent • 1). Remove medium from dish with transfected HEK-293 cells via aspiration, trypsinize and allow cells to dissociate from the dish. • 2). Neutralize trypsin using medium containing serum and centrifuge at 200× g for 5 minutes to pellet the cells. Adjust the cell density to […] cells/mL in Opti-MEM without phenol red. • 3). Prepare Complete 20× NanoBRET™ Tracer Reagent with Tracer Dilution Buffer. • 4). […]

MOLM14 D835Y cells = assay: MOLM14 D835Y cell viability assay (Cell Titer Glo); type: cell-based

Work on COc1cc2ncc(-c3nc(N[C@H]4CNCC[C@@H]4F)c(F)cc3F)n2nc1C1CCC1 [Compound 15a, 6-(6-cyclobutyl-7-methoxyimidazo[1,2-b]pyridazin-3-yl)-3,5-difluoro-N-((3S,4S)-4-fluoropiperidin-3-yl)pyridin-2-amine] yielded an IC50 (FLT3) of less than 0.5 nM and an IC50 (MOLM14 D835Y cells; Homo sapiens, MOLM-14, 48 h) of 18 nM.
COc1cc2ncc(-c3nc(N[C@H]4CNCC[C@@H]4F)c(F)cc3F)n2nc1C(C)(O)C(F)(F)F (single isomer, unassigned) [Compound 77a] gave an IC50 (FLT3) of 2 nM and an IC50 (MOLM14 D835Y cells; 48 hours) of 8 nM.
Work on COc1cc2ncc(-c3nc(N[C@H]4CNC[C@@H]4F)c(F)cc3F)n2nc1C1CC2(CCC2)C1 [Compound 12a, 3,5-difluoro-N-((3S,4S)-4-fluoropyrrolidin-3-yl)-6-(7-methoxy-6-(spiro[3.3]heptan-2-yl)imidazo[1,2-b]pyridazin-3-yl)pyridin-2-amine] yielded an IC50 (FLT3) of 13 nM.
COc1cc2ncc(-c3nc(N[C@H]4CNCC[C@@H]4F)c(F)cc3F)n2nc1C12CC(C1)C2 [Compound 67a, 6-(6-(bicyclo[1.1.1]pentan-1-yl)-7-methoxyimidazo[1,2-b]pyridazin-3-yl)-3,5-difluoro-N-((3S,4S)-4-fluoropiperidin-3-yl)pyridin-2-amine] was tested, and the IC50 (FLT3) was 1 nM.
For COc1cc2ncc(-c3nc(N[C@H]4CNCC[C@@H]4F)c(F)cc3F)n2nc1C1CC2(CCC2)C1 [Compound 10a, 3,5-difluoro-N-((3S,4S)-4-fluoropiperidin-3-yl)-6-(7-methoxy-6-(spiro[3.3]heptan-2-yl)imidazo[1,2-b]pyridazin-3-yl)pyridin-2-amine], the IC50 (FLT3) was 63 nM.
In the case of COc1cc2ncc(-c3nc(N[C@@H]4CCCNC4)c(F)cc3F)n2nc1C(C)(O)C(F)(F)F (single isomer, unassigned) [Compound 81a], the IC50 (FLT3) is reported as 5 nM and the IC50 (MOLM14 D835Y cells; 48 hours) is reported as 6 nM.
With COc1cc2ncc(-c3nc(N[C@H]4CNC[C@@H]4F)c(F)cc3F)n2nc1C(C)(O)C(F)(F)F (single isomer, unassigned) [Compound 80a] the IC50 (FLT3) was 1 nM and the IC50 (MOLM14 D835Y cells; 48 hours) was 23 nM.
